In one assay the test system is Masugi nephritis rabbits. Briefly: Masugi nephritis in rabbits: clearance of sheep anti-rabbit renal cortex IgG antibody (glomerular immunofluorescence). In kind it is in vivo. The note with it: saline treatment 8.7 ± 0.9. How it is done: Before the establishment of a disease state in the rabbits, measurements of serum BUN, creatinine, and urine protein over 24 hours were taken for each rabbit. If there was no abnormality in these measurements, the Masugi nephritis model was established in experimental rabbits by intravenous injection of sheep anti-rabbit renal cortex antiserum via the auricular vein, 0.5 ml per injection, one injection every 30 minutes, for a total of 4 injections per rabbit. The normal healthy (control) rabbit group was injected with saline in the same manner. Intravenous administration of the test substances via the auricular vein was started on the day after the injection of the antiserum, once per day, 1 ml per injection, for 30 consecutive days.
For observation of the effects of peptides on the clearance of sheep anti-rabbit renal cortex IgG antibody from Masugi nephritis rabbits, on the day after the last test substance administration, the rabbits were sacrificed by suffocation and the right kidney was extirpated, freeze-edged and then immunofluorescently stained for the presence of sheep IgG. The fluorescence-positive area of each glomerulus was counted. Thirty glomeruli per rabbit were examined and the average positive area per glomerulus was calculated.
Statistical significance was determined by the t-test of the SPSS software.

In assay [1] the test system is mice T-lymphocyte. In words: Mice T-lymphocyte transformation in vivo (i.p. dosing 20 days, spleen cells + ConA, MTT, stimulation index). Also on record: species or system BALB/c mice. The procedure:
Animals were randomized into two peptide groups (200 μg/kg/day and 50 μg/kg/day), Cyclosporine A group (10 mg/kg/day), and saline group (0.5 ml/day). Each group contained 10 mice, in which half were female and half were male. All test substances were dissolved in 0.5 ml saline and administered intraperitoneally once per day for 20 days. T-lymphocyte transformation and NK cell activity were examined on the day immediately following the last injection. The day after the last test substance administration, the mice were sacrificed by cervical dislocation. The spleens were isolated aseptically and manually dispersed in 10% FBS RPMI-1640 solution using an injection needle. The dispersed cell suspension was further sieved through a 100 gauge 150 μm diameter stainless steel sieve and adjusted to 4×10^6/ml. The cell suspensions were inoculated onto a 96 wells cell culture plate, 100 μl/well with the following design. Assay wells: 100 μl cell suspension+100 μl ConA Control wells: 100 μl cell suspension+100 μl RPMI-1640 Four assay and four control wells were set up for each animal. The plates were incubated at 37° C., 5% CO2 for 68 hours. MTT was then added and the plates read at OD 570 nm referenced at 630 nm with ELISA reader. Stimulation Index SI (%)=(assay well OD/control well OD)×100%.

For a further assay, the system named is mice NK cell. Briefly: Mice NK cell activity in vivo (i.p. dosing 20 days, spleen effector cells vs YAC-1 target cells, MTT). To be noted: for NK cell activity (%): Table 8, saline 76.0 ± 4.3. Also on record: species or system BALB/c mice. The procedure: Animals were randomized into two peptide groups (200 μg/kg/day and 50 μg/kg/day), Cyclosporine A group (10 mg/kg/day), and saline group (0.5 ml/day). Each group contained 10 mice, in which half were female and half were male. All test substances were dissolved in 0.5 ml saline and administered intraperitoneally once per day for 20 days. T-lymphocyte transformation and NK cell activity were examined on the day immediately following the last injection. YAC-1 target cells were brought to log phase and adjusted to a density of 1×10^5/ml. Mice spleen cells prepared in section 2.2.2 above were adjusted to a density of 4×10^6/ml and used as effector cells. The cell suspensions were inoculated onto 96 wells cell culture plates as follows: Effector cell wells: 100 μl spleen cell suspension+100 μl RPMI-1640 Assay wells: 100 μl spleen cell suspension+100 μl YAC-1 cell suspension Target cell wells: 100 μl YAC-1 cell suspension+100 μl RPMI-1640 Three assay wells and three effector cell wells were set up for each animal, and 12 target cell wells were set up per cell culture plate. The plates were incubated at 37° C., 5% CO2 for 4 hours, then MTT was added and the plates were read at OD 570 nm referenced at 630 nm with ELISA reader. NK cell activity (%)=1−[(assay wells OD−effector cell wells OD)/target cell wells OD]×100%

The test system of a further assay is mice antibody formation. In words: Mice antibody formation in vivo (SRBC immunisation, serum haemolysis HC50). Also on record: species or system BALB/c mice.
The subject of assay [2] is mice T-lymphocyte. In words: Mice T-lymphocyte transformation induced by ConA in vitro (spleen cells, MTT). In kind it is cell-based, BALB/c mice. To be noted: for OD: Table 2, ConA 5 μg/ml, 68 hrs. The procedure:
The spleens from healthy mice were isolated aseptically and manually dispersed in 10% FBS RPMI-1640 solution using an injection needle. The dispersed cell suspension was further sieved through a 100-gauge 150 μm diameter stainless steel sieve. The spleen cell suspension was adjusted to a density of 4×10^6/ml and was aliquoted onto 96-well cell culture plates at 100 μl/well. Peptides were dissolved in plain RPMI-1640. The design of the groupings was as given below.
Peptide group: 100 μl working peptide solution+75 μl spleen cell suspension+25 μl ConA working solution.
ConA control group: 100 μl RPMI-1640+75 μl spleen cell suspension+25 μl ConA working solution.
Negative control group: 125 μl RPMI-1640+75 μl spleen cell suspension.
The final concentration of ConA in the well was 5 μg/ml. The final concentrations of peptides in the well were 80 μg/ml, 16 μg/ml, 3.2 μg/ml, 0.64 μg/ml, and 0.128 μg/ml. Each peptide group contained three parallel wells, and eight or twelve wells for the control groups. The cells were incubated for 68 hrs at 37° C., 5% CO2. MTT method was used to obtain a reading of OD570 nm of each well referenced at 630 nm on an ELISA reader.

The test system of the next assay is Heymann nephritis rats. Briefly: Heymann nephritis in rats: 24 hr urine protein. In kind it is in vivo, Wistar rats. How it is done:
20 healthy Wistar rats were randomized into two groups: peptide (200 μg/kg/day) and saline treatment (2 ml/day). Two ml of antigen were intraperitoneally injected to each rat, once every two weeks, for a total of 5 rounds of injection. Test substance administration by intraperitoneal injection was started on the day after the third immunization, once per day until the end of the experiment.
Quantification of uriner protein began at the third week of model establishment. A urine sample was collected from each rat over a 24 hour period once every […] the urine protein content quantified by the sulfosalicylic acid method.
Sample values were compared by t-test using SPSS software.

Setting [3] is: at suitable dosage, vs saline control P<0.05.

These results are taken from patent US7718764B2, “Biologically active peptide [sequence] derivatives” (CMS Peptides Patent Holding Company Limited, priority 2004, dated 2010).

Experimental for mice antibody formation: The mice were randomized into three groups: peptide (200 μg/kg/day), Cyclosporine A (10 mg/kg/day), and saline (0.5 ml). Each group contained 12 mice, 6 female and 6 male. The test substances were dissolved in 0.5 ml saline and applied intraperitoneally once per day for 20 consecutive days.
Sheep red blood cells (SRBC) were resuspended with saline to 2% (v/v) and 0.2 ml of the resuspended cell solution was applied intraperitoneally to each mouse on day 16th of the test substance administration. On the day after the last test substance administration, blood was collected from the inner canthus and left at room temperature for one hour for serum exudation. After centrifugation at 200 g for 10 minutes, the serum was diluted by 200 times with normal saline.
For the preparation of the complement working solution, 10 volumes of fresh Cavy serum was added into one volume of centrifuge-packed SRBC. […]
For assay of the mice antibody titer, 0.2 ml of 1% SRBC suspension was added to 1 ml diluted ice-cold mouse serum from each mouse. […] To 1 ml of this supernatant, 3 ml Drabkin solution was added and left at room temperature for 10 minutes, and then the OD540nm was measured. The reference lysis-50 reading at OD540nm was determined by following the exact procedure as the sample, except replacing half of the SRBC with saline and without the centrifugation removal of the unlysed SRBC. […]

For PLNPK [CMS-010.26], the Positive area count/glomerulus in the assay on Masugi nephritis rabbits (58.5 μg/kg/day i.v. 30 days) came out at 6.3 ± 1.4; in the assay on Masugi nephritis rabbits (107.3 μg/kg/day i.v. 30 days), 5.6 ± 1.2. Also, the SI with mice T-lymphocyte [1] (Table 4, 200 μg/kg/day i.p. 20 days, saline 3.63 ± 0.69) is given as 2.19 ± 0.59. Besides, in the assay with mice T-lymphocyte [1] (at suitable dosages, vs saline control P<0.05), the “Effect on mice T-lymphocyte transformation in vivo” value is recorded as “suppress”. In addition, the “NK cell activity (%)” value is 68.5 ± 7.2 % in the assay with mice NK cell (50 μg/kg/day i.p. 20 days) and 67.7 ± 5.3 % in the assay with mice NK cell (200 μg/kg/day i.p. 20 days). Besides, the “Effect on mice NK cell activity in vivo (suppression)” value in the assay on mice NK cell (setting [3]) is reported as “suppress”. The HC50 in the assay on mice antibody formation (200 μg/kg/day i.p. 20 days, SRBC day 16, saline 167.6 ± 21.5) is on record as 141.3 ± 29.3. In addition, in the assay on mice antibody formation (setting [3]), the “Effect on mice antibody formation in vivo” value is given as “suppress”. The OD was determined as 0.354 ± 0.017 in the assay with mice T-lymphocyte [2] (peptide 0.128 μg/ml, ConA control 0.467 ± 0.043); 0.348 ± 0.025 with mice T-lymphocyte [2] (peptide 0.64 μg/ml, ConA control 0.467 ± 0.043); 0.332 ± 0.015 with mice T-lymphocyte [2] (peptide 3.2 μg/ml, ConA control 0.467 ± 0.043); 0.356 ± 0.006 in the assay with mice T-lymphocyte [2] (peptide 16 μg/ml, ConA control 0.467 ± 0.043); 0.353 ± 0.016 in the assay on mice T-lymphocyte [2] (peptide 80 μg/ml, MTT OD570 nm ref 630 nm, ConA control 0.467 ± 0.043, negative control 0.134 ± 0.011). Besides, the “Effect on mice T-lymphocyte transformation induced by ConA in vitro” value with mice T-lymphocyte [2] (at suitable concentrations, vs ConA positive control P<0.05) is reported as “suppress”. The “24 hr. urine protein concentration Week 3” value in the assay with Heymann nephritis rats (200 μg/kg/day i.p., Week 3, saline treatment 4.1 ± 1.3) worked out at 6.2 ± 2.3 mg/dL. In addition, in the assay with Heymann nephritis rats (200 μg/kg/day i.p., Week 5, saline treatment 3.1 ± 0.8), the “24 hr. urine protein concentration Week 5” value was determined as 3.1 ± 1.4 mg/dL. Moreover, the “24 hr. urine protein concentration Week 7” value in the assay on Heymann nephritis rats (200 μg/kg/day i.p., Week 7, saline treatment 10.9 ± 2.8) is 3.9 ± 1.6 mg/dL. Besides, in the assay on Heymann nephritis rats (200 μg/kg/day i.p., Week 9, saline treatment 12.6 ± 1.2), the “24 hr. urine protein concentration Week 9” value was 3.8 ± 2.2 mg/dL. Besides, the “Effect on severity of proteinuria in Heymann nephritis rats” value in the assay on Heymann nephritis rats (at suitable dosage, vs saline treatment P<0.05) was “decrease”.
